In patent US20060069132A1, “Azolecarboxamide herbicides” (priority 2004, published 2006):

Assays:
barnyardgrass [1] = test: Test A pre-/postemergence herbicide test; type: in vivo, Echinochloa crus-galli
Procedure, shortened: (§1)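 Pre: seeded sandy loam, directed soil spray, compound in non-phytotoxic solvent + surfactant. Post: 1–2-leaf plants (2–10 cm), sprayed to runoff. Greenhouse ~10 d; visual injury vs untreated, 0–100 scale.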

[2] = test system: small flower umbrella sedge; test: Test B flooded paddy test; type: in vivo, Cyperus difformis; details: 1000 g ai/ha, visual rating, scale 0 to 100 (0 no effect, 100 complete control), 13 to 15 days
Procedure, shortened: (§2)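 Paddy species grown to the 2-leaf stage under flooding; blackgrass sprayed postemergence at 2–18 cm (1- to 4-leaf stage). Plants kept in a greenhouse for 13 to 15 days, then visually rated against controls on 0 (no effect) to 100 (complete control).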

wheat = test: Test B postemergence herbicide test; type: in vivo, Triticum aestivum; design: key to Wheat plant response rating: 0 = no effect, 100 = complete control; details: scale 0 (no effect) to 100 (complete control)
Procedure, shortened: (§3)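 Postemergence plants were sprayed with formulated test chemicals at 2 to 18 cm height (1- to 4-leaf stage); paddy species were grown to the 2-leaf stage. After 13 to 15 days in a greenhouse, injury was rated visually against untreated controls on a 0–100 scale (0 = no effect, 100 = complete control).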

rice [3] = test: Test B pre-/postemergence herbicide test; type: in vivo, Oryza sativa; details: preemergence
Procedure, shortened: (§4)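 Formulation: non-phytotoxic solvent mix with surfactant. Timing: preemergence on seed and postemergence on 2–18 cm plants, applied concurrently. Readout after 13–15 d greenhouse: visual 0–100 control rating against controls.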

lambsquarters = test: Test B pre-/postemergence herbicide test; type: in vivo, Chenopodium album
Procedure, shortened: as §4

rice [4] = test: Test B flooded paddy test; type: in vivo, Oryza sativa; details: 1000 g ai/ha, visual rating, scale 0 to 100 (0 no effect, 100 complete control), 13 to 15 days
Procedure, shortened: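 Scale 0–100: zero equals no visible effect, 100 complete control, judged by eye relative to controls. Timing: 13 to 15 days in greenhouse post-treatment. Growth stage at spraying: two leaves (paddy) or one to four leaves, 2–18 cm (postemergence).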

velvetleaf [5] = test: Test A pre-/postemergence herbicide test; type: in vivo, Abutilon theophrasti
Procedure, shortened: as §1

morningglory [6] = test: Test A pre-/postemergence herbicide test; type: in vivo, Ipomoea spp.
Procedure, shortened: as §1

barnyardgrass [7] = test: Test B pre-/postemergence herbicide test; type: in vivo, Echinochloa crus-galli
Procedure, shortened: (§5)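 Test chemicals in a non-phytotoxic solvent mixture with surfactant were applied preemergence to seeded species and postemergence to plants 2-18 cm tall (1- to 4-leaf stage); rice and barnyardgrass were also tested in a flooded paddy at the 2-leaf stage. Visual rating versus controls after 13-15 days in greenhouse, scale 0 (no effect) to 100 (complete control).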

wild oat = test: Test B postemergence herbicide test; type: in vivo, Avena fatua; details: scale 0 (no effect) to 100 (complete control)
Procedure, shortened: as §3

barnyardgrass [8] = test: Test B flooded paddy test; type: in vivo, Echinochloa crus-galli; details: 1000 g ai/ha, visual rating, scale 0 to 100 (0 no effect, 100 complete control), 13 to 15 days
Procedure, shortened: as §2

giant foxtail [9] = test: Test A pre-/postemergence herbicide test; type: in vivo, Setaria faberi
Procedure, shortened: as §1

large crabgrass [10] = test: Test B pre-/postemergence herbicide test; type: in vivo, Digitaria sanguinalis; details: scale 0 (no effect) to 100 (complete control)
Procedure, shortened: as §4

large crabgrass [11] = test: Test A pre-/postemergence herbicide test; type: in vivo, Digitaria sanguinalis
Procedure, shortened: as §1

giant foxtail [12] = test: Test B pre-/postemergence herbicide test; type: in vivo, Setaria faberi
Procedure, shortened: as §4

pigweed = test: Test B pre-/postemergence herbicide test; type: in vivo, Amaranthus retroflexus
Procedure, shortened: as §4

ducksalad = test: Test B flooded paddy test; type: in vivo, Heteranthera limosa; details: 1000 g ai/ha, visual rating, scale 0 to 100 (0 no effect, 100 complete control), 13 to 15 days
Procedure, shortened: as §2

blackgrass = test: Test B postemergence herbicide test; type: in vivo, Alopecurus myosuroides; details: scale 0 (no effect) to 100 (complete control)
Procedure, shortened: as §2

morningglory [13] = test: Test B pre-/postemergence herbicide test; type: in vivo, Ipomoea coccinea
Procedure, shortened: as §5

Surinam grass = test: Test B pre-/postemergence herbicide test; type: in vivo, Urochloa decumbens; details: scale 0 (no effect) to 100 (complete control)
Procedure, shortened: as §4

redroot pigweed = test: Test A pre-/postemergence herbicide test; type: in vivo, Amaranthus retroflexus
Procedure, shortened: as §1

cocklebur = test: Test B pre-/postemergence herbicide test; type: in vivo, Xanthium strumarium; details: scale 0 (no effect) to 100 (complete control)
Procedure, shortened: as §5

velvetleaf [14] = test: Test B pre-/postemergence herbicide test; type: in vivo, Abutilon theophrasti; details: scale 0 (no effect) to 100 (complete control)
Procedure, shortened: as §4

corn = test: Test B pre-/postemergence herbicide test; type: in vivo, Zea mays
Procedure, shortened: as §4

[15] = Postemergence, 500 g ai/ha, 0 to 100 scale, 0 no effect, 100 complete control
[16] = Postemergence, 2000 g ai/ha, 0 to 100 scale, 0 no effect, 100 complete control
[17] = Preemergence, 500 g ai/ha, visual rating, 0 to 100 scale (0 no effect, 100 complete control)
[18] = Preemergence, 2000 g ai/ha, 0 to 100 scale, 0 no effect, 100 complete control
[19] = Postemergence, 500 g ai/ha, visual rating after 13 to 15 days
[20] = postemergence, 125 g ai/ha, visual rating
[21] = 500 g ai/ha, visual rating 0-100, 0 no effect, 100 complete control, preemergence
[22] = Postemergence, 500 g ai/ha, visual rating after 13 to 15 days, scale 0 (no effect) to 100 (complete control)
[23] = postemergence, 125 g ai/ha, visual rating, scale 0 (no effect) to 100 (complete control)
[24] = preemergence, 125 g ai/ha, 0 to 100 scale, 0 is no effect, 100 is complete control

CCn1nc(C(C)(C)C)cc1C(=O)Nc1cccc(C(=O)OCCF)c1C [Compound 91]
Barnyardgrass plant response rating (barnyardgrass [1]; [15]): 0
Plant response rating, Barnyardgrass (barnyardgrass [1]; [16]): 0
Barnyardgrass plant response rating (barnyardgrass [1]; [17]): 0
Barnyardgrass plant response rating (barnyardgrass [1]; [18]): 15
Sedge, Umbrella plant response rating [2]: 60
Plant response rating, Wheat (wheat; [19]): 10
Wheat plant response rating (wheat; [20]): 0
Plant response rating, Rice (rice [3]; 500 g ai/ha, visual rating 0-100, 0 no effect, 100 complete control): 10
Plant response rating, Rice (rice [3]; 125 g ai/ha, 0 to 100 scale, 0 is no effect, 100 is complete control): 0
Plant response rating, Lambsquarters (lambsquarters; [21]): 30
Plant response rating, Lambsquarters (lambsquarters; [22]): 30
Lambsquarters plant response rating (lambsquarters; [23]): 20
Plant response rating, Lambsquarters (lambsquarters; [24]): 0
Rice plant response rating (rice [4]): 10
Velvetleaf plant response rating (velvetleaf [5]; [15]): 5
Plant response rating, Velvetleaf (velvetleaf [5]; [16]): 10
Velvetleaf plant response rating (velvetleaf [5]; [17]): 5
Velvetleaf plant response rating (velvetleaf [5]; Preemergence, 2000 g ai/ha, visual rating, 0 to 100 scale (0 no effect, 100 complete control)): 20
Morningglory plant response rating (morningglory [6]; [15]): 0
Plant response rating, Morningglory (morningglory [6]; [16]): 0
Morningglory plant response rating (morningglory [6]; [17]): 0
Morningglory plant response rating (morningglory [6]; [18]): 10
Plant response rating, Barnyardgrass (barnyardgrass [7]; [21]): 10
Plant response rating, Barnyardgrass (barnyardgrass [7]; [22]): 0
Barnyardgrass plant response rating (barnyardgrass [7]; [23]): 0
Plant response rating, Barnyardgrass (barnyardgrass [7]; [24]): 0
Plant response rating, Oat, Wild (wild oat; [19]): 10
Oat, Wild plant response rating (wild oat; [20]): 0
Barnyardgrass plant response rating (barnyardgrass [8]): 0
Foxtail, Giant plant response rating (giant foxtail [9]; [15]): 0
Plant response rating, Foxtail, Giant (giant foxtail [9]; [16]): 0
Foxtail, Giant plant response rating (giant foxtail [9]; [17]): 0
Foxtail, Giant plant response rating (giant foxtail [9]; [18]): 30
Plant response rating, Crabgrass, Large (large crabgrass [10]; [19]): 10
Crabgrass, Large plant response rating (large crabgrass [10]; [20]): 0
Crabgrass, Large plant response rating (large crabgrass [11]; [15]): 10
Plant response rating, Crabgrass, Large (large crabgrass [11]; [16]): 20
Crabgrass, Large plant response rating (large crabgrass [11]; [17]): 0
Crabgrass, Large plant response rating (large crabgrass [11]; [18]): 35
Plant response rating, Foxtail, Giant (giant foxtail [12]; [21]): 10
Plant response rating, Foxtail, Giant (giant foxtail [12]; [22]): 0
Foxtail, Giant plant response rating (giant foxtail [12]; [23]): 0
Plant response rating, Foxtail, Giant (giant foxtail [12]; [24]): 10
Plant response rating, Pigweed (pigweed; [21]): 0
Plant response rating, Pigweed (pigweed; [22]): 10
Pigweed plant response rating (pigweed; [23]): 10
Plant response rating, Pigweed (pigweed; [24]): 0
Ducksalad plant response rating (ducksalad): 30
Plant response rating, Blackgrass (blackgrass; [19]): 0
Blackgrass plant response rating (blackgrass; [20]): 0
Plant response rating, Morningglory (morningglory [13]; [21]): 10
Plant response rating, Morningglory (morningglory [13]; [22]): 0
Morningglory plant response rating (morningglory [13]; [23]): 0
Plant response rating, Morningglory (morningglory [13]; [24]): 0
Plant response rating, Surinam Grass (Surinam grass; [19]): 10
Surinam Grass plant response rating (Surinam grass; [20]): 10
Pigweed plant response rating (redroot pigweed; [15]): 0
Plant response rating, Pigweed (redroot pigweed; [16]): 20
Pigweed plant response rating (redroot pigweed; [17]): 0
Pigweed plant response rating (redroot pigweed; [18]): 55
Plant response rating, Cocklebur (cocklebur; [19]): 10
Cocklebur plant response rating (cocklebur; [20]): 0
Plant response rating, Velvetleaf (velvetleaf [14]; [19]): 10
Velvetleaf plant response rating (velvetleaf [14]; [20]): 0
Plant response rating, Corn (corn; [21]): 10
Plant response rating, Corn (corn; [22]): 10
Corn plant response rating (corn; [23]): 10
Plant response rating, Corn (corn; [24]): 0
